Laboratory results published in ChEMBL document CHEMBL1139163, “Discovery and initial SAR of 3-(1H-benzo[d]imidazol-2-yl)pyridin-2(1H)-ones as inhibitors of insulin-like growth factor 1-receptor (IGF-1R)” (Bioorg Med Chem Lett, 2007).

Columns and labels:
[1] = target: Insulin-like growth factor 1 receptor (Homo sapiens, UniProt P08069); test: Inhibition of human recombinant IGF1 receptor
HT-29 = test: Cytotoxicity against HT29 cells by MTT assay; assay type: functional, Homo sapiens

Sequence of Insulin-like growth factor 1 receptor (P08069 31-736 limits assumed): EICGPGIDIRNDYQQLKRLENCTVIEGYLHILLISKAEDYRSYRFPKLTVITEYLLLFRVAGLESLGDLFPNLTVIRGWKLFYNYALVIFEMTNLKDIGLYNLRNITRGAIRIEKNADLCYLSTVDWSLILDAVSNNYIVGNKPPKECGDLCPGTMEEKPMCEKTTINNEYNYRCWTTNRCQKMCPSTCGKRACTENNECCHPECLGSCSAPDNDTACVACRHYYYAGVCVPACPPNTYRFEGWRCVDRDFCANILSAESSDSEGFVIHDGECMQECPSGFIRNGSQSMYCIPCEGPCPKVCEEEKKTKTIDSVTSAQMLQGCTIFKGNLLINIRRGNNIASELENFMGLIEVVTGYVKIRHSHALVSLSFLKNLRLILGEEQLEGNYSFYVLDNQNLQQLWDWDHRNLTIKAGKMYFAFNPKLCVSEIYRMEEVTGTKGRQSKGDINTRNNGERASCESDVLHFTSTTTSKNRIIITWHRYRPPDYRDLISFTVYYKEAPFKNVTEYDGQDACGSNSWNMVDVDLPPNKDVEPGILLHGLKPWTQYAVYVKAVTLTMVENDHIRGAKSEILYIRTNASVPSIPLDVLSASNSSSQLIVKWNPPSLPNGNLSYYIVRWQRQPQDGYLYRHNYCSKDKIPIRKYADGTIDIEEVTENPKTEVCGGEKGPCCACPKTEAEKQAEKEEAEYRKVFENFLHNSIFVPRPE
Sequence of Insulin-like growth factor 1 receptor (P08069 741-1367 limits assumed): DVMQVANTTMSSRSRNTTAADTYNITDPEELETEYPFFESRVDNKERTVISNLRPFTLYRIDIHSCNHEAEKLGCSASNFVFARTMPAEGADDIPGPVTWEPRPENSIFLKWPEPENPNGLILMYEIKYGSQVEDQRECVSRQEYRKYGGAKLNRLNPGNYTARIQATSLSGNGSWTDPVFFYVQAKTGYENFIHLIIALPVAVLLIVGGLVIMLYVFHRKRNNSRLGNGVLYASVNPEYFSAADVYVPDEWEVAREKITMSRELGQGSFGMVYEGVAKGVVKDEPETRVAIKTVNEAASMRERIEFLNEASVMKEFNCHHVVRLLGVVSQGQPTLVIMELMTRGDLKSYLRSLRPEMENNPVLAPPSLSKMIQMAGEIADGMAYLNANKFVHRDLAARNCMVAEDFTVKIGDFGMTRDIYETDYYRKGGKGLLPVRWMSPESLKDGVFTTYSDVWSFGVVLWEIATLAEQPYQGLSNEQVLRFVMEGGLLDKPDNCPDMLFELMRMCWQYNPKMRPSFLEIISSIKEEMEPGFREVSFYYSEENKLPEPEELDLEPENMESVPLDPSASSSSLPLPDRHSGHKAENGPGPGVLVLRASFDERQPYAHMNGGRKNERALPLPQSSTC

IC50 [1] | SMILES | Activity (HT-29)
3100 nM | COc1ccc(C[C@@H](CO)Nc2cc[nH]c(=O)c2-c2nc3c(C)cc(-n4ccnc4)cc3[nH]2)cc1 | –
1400 nM | Cc1cc(-n2ccnc2)cc2[nH]c(-c3c(N[C@H](CO)Cc4ccc(F)cc4)cc[nH]c3=O)nc12 | –
660 nM | COc1cccc(C[C@@H](CO)Nc2cc[nH]c(=O)c2-c2nc3c(C)cc(-n4ccnc4)cc3[nH]2)c1 | 1.6 µM
530 nM | Cc1cc(-n2ccnc2)cc2[nH]c(-c3c(N[C@H](CO)Cc4ccccc4)cc[nH]c3=O)nc12 | 0.78 µM
3500 nM | Cc1cc(-n2ccnc2)cc2[nH]c(-c3c(N[C@H](CO)Cc4cccc(C(F)(F)F)c4)cc[nH]c3=O)nc12 | –
2200 nM | Cc1cc(-n2ccnc2)cc2[nH]c(-c3c(N[C@H](CO)Cc4ccccc4C#N)cc[nH]c3=O)nc12 | –
> 25000 nM | Cc1cc(-n2ccnc2)cc2[nH]c(-c3c(NCc4ccncc4)cc[nH]c3=O)nc12 | –
5400 nM | Cc1cc(-n2ccnc2)cc2[nH]c(-c3c(N[C@H](CO)Cc4ccc(Cl)cc4)cc[nH]c3=O)nc12 | –
– | Cc1cc(-n2ccnc2)cc2nc(-c3c(NCc4ccccn4)cc[nH]c3=O)[nH]c12 | 7.6 µM
> 25000 nM | Cc1cc(-n2ccnc2)cc2[nH]c(-c3c(SCc4ccccn4)cc[nH]c3=O)nc12 | –
2500 nM | Cc1cc(-n2ccnc2)cc2nc(-c3c(NCCn4nccn4)cc[nH]c3=O)[nH]c12 | –
1300 nM | Cc1cc(-n2ccnc2)cc2[nH]c(-c3c(N[C@H](CO)Cc4ccccc4OC(F)(F)F)cc[nH]c3=O)nc12 | –
530 nM | Cc1ccccc1C[C@@H](CO)Nc1cc[nH]c(=O)c1-c1nc2c(C)cc(-n3ccnc3)cc2[nH]1 | –
> 25000 nM | NCc1cc(-n2ccnc2)cc2nc(-c3ccc[nH]c3=O)[nH]c12 | –
860 nM | Cc1cc(-n2ccnc2)cc2[nH]c(-c3c(N[C@H](CO)Cc4ccccc4Cl)cc[nH]c3=O)nc12 | –
14000 nM | Cc1cc(-n2ccnc2)cc2nc(-c3c(NCc4cccnc4)cc[nH]c3=O)[nH]c12 | –
3300 nM | Cc1cc(-n2ccnc2)cc2[nH]c(-c3c(N[C@H](CO)Cc4cccc([N+](=O)[O-])c4)cc[nH]c3=O)nc12 | –

IC50 [1] | SMILES | Activity (HT-29)
590 nM | Cc1cc(-n2ccnc2)cc2[nH]c(-c3c(N[C@H](CO)Cc4cccc(Br)c4)cc[nH]c3=O)nc12 | 1.3 µM
> 25000 nM | Cc1cc(-n2ccnc2)cc2[nH]c(-c3c(OCc4ccccn4)cc[nH]c3=O)nc12 | –
290 nM | Cc1cc(-n2ccnc2)cc2[nH]c(-c3c(N[C@H](CO)Cc4ccccc4Br)cc[nH]c3=O)nc12 | 0.83 µM
> 25000 nM | CN(Cc1cc(-n2ccnc2)cc2[nH]c(-c3ccc[nH]c3=O)nc12)c1ccccc1 | –
> 25000 nM | O=c1[nH]cccc1-c1nc2c(CN3CCNCC3)cc(-n3ccnc3)cc2[nH]1 | –
> 25000 nM | O=c1[nH]cccc1-c1nc2cc(-n3ccnc3)cc(CNCc3cccnc3)c2[nH]1 | –
730 nM | Cc1cc(-n2ccnc2)cc2[nH]c(-c3c(N[C@H](CO)Cc4cccc(Cl)c4)cc[nH]c3=O)nc12 | 1.1 µM
> 25000 nM | O=c1[nH]cccc1-c1nc2c(CNCc3ccccc3)cc(-n3ccnc3)cc2[nH]1 | –
13000 nM | CCN(Cc1cc(-n2ccnc2)cc2[nH]c(-c3ccc[nH]c3=O)nc12)c1ncc[nH]1 | –
590 nM | Cc1cc(-n2ccnc2)cc2[nH]c(-c3c(N[C@H](CO)Cc4cccc(F)c4)cc[nH]c3=O)nc12 | 2.1 µM
1700 nM | Cc1cc(-n2ccnc2)cc2[nH]c(-c3c(N[C@H](CO)Cc4ccc(OC(C)(C)C)cc4)cc[nH]c3=O)nc12 | –
3000 nM | Cc1cc(-n2ccnc2)cc2nc(-c3c(NCc4ccco4)cc[nH]c3=O)[nH]c12 | –
2100 nM | Cc1cc(-n2ccnc2)cc2[nH]c(-c3c(NCCc4cccs4)cc[nH]c3=O)nc12 | –
4800 nM | Cc1cc(-n2ccnc2)cc2nc(-c3c(N[C@H](CO)Cc4ccccn4)cc[nH]c3=O)[nH]c12 | –
570 nM | COc1ccccc1C[C@@H](CO)Nc1cc[nH]c(=O)c1-c1nc2c(C)cc(-n3ccnc3)cc2[nH]1 | 1.2 µM
5300 nM | Cc1cc(-n2ccnc2)cc2[nH]c(-c3c(NCc4cccs4)cc[nH]c3=O)nc12 | –
> 25000 nM | CNCc1cc(-n2ccnc2)cc2nc(-c3ccc[nH]c3=O)[nH]c12 | –
